We go through nine compounds from PubChem BioAssay (NCI).

Holding throughout (experiment): NCI-60 cell line screen, 48 h
Test [1] relates to HCT-15 colon.
In test [2] the test system is RXF 393 renal.
For test [3], the system named is HT29 colon.
The test system of test [4] is SN12C renal.
For test [5], the system named is SR leukemia.
Test [6] concerns OVCAR-8 ovarian.
Test [7] has as its system M14 melanoma.
In test [8] the test system is MCF7 breast.
Test [9] concerns OVCAR-3 ovarian.
Test [10] concerns HCC-2998 colon.

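Briefly, cells in 96-well plates were exposed to five compound concentrations for 48 h, and endpoints were estimated by linear interpolation. GI50 = concentration required for 50% inhibition of growth. TGI denotes the concentration required for complete inhibition of growth.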 Where only a bound is given, the exact number is not on record here.

Consider `COc1cc(Nc2nc3cc(N)cc(N)c3nc2-c2ccccc2)cc(OC)c1OC`, for which the GI50 is 15.3 µM in test [1]; 14.4 µM in test [2]; 20.4 µM in test [4]; 3.31 µM in [5]; 15.3 µM in test [6]; 19.6 µM in test [7]. The GI50 is 25.5 µM in test [8] and 14.2 µM in test [9]. Besides, the TGI came to 45.4 µM in test [1]; 34.4 µM in [2]; 35 µM in test [3]; 83.7 µM in test [4]; 16 µM in test [5]; 34.9 µM in test [6]. Moreover, the TGI in test [7] came to 44.9 µM; in test [8], 94.5 µM; in test [9], 37.1 µM.

Consider `CCC(C)[C@H]1O[C@]2(CC[C@@H]1C)C[C@@H]1C[C@@H](C/C=C(\C)[C@@H](OC3C[C@H](OC)C(O[C@H]4C[C@H](OC)[C@@H](O)[C@H](C)O4)[C@H](C)O3)[C@@H](C)/C=C/C=C3\CO[C@@H]4[C@H](O)C(C)=C[C@@H](C(=O)O1)[C@]34O)O2` (stereo partly drawn), for which the GI50 in test [1] is 2.74 µM; in test [2], 1.37 µM; in [3] it was 2.4 µM; in [4], 3.08 µM; in test [5], 5.79 µM; in test [6], 3.06 µM. Also, the GI50 is 3.15 µM in [7], 3.02 µM in test [8] and 3.12 µM in test [9]. Besides, the TGI is 10.2 µM in [1]; 2.81 µM in [2]; 5.81 µM in test [3]; 11.4 µM in test [4]; 33.7 µM in [5]; 12.5 µM in test [6]. Besides, the figures for the TGI in test [7], in [8] and in test [9] were 11.2 µM, 10.8 µM and 9.3 µM, respectively.

On to `CC(C)C1=CC(=O)C(C)(C2C(O)CC3(C)C4CC=C5C(CCC(OC6OC(CO)C(O)C(O)C6OC6OC(C)C(O)C(O)C6O)C5(C)C)C4(C)C(=O)CC23C)O1` (stereo not drawn), for which the TGI in [1], in test [2], in [10], in test [3], in test [4] and in [6] was greater than 100 µM throughout. The TGI in test [7], in test [8] and in test [9] was greater than 100 µM throughout.

Take `CC(C)(C)c1ccc(S(=O)(=O)Oc2ccc3c4c(c(=O)oc3c2)CCCCC4)cc1`: the GI50 in test [1] was 7.92 µM; in test [2], 17.8 µM; in [10], greater than 100000 nM; in test [3], 7.95 µM; in test [4], 29.3 µM; in test [6], 21.8 µM. Also, the figures for the GI50 in test [7], in test [8] and in test [9] were 20.4 µM, 18.2 µM and 18.4 µM, respectively. For the same compound, the TGI in test [1] is greater than 100 µM; in [2], 63.5 µM; in test [10], greater than 100 µM; in test [3] it was greater than 100 µM; in test [4] it was greater than 100 µM; in [6], greater than 100 µM. Further, the TGI in test [7], in test [8] and in [9] was greater than 100 µM in each case.

With `O=C(Oc1cccc2cccnc12)c1cc2c(cc1Cl)SC(N(c1ccc(F)cc1)S(=O)(=O)c1ccc(Br)s1)=NS2(=O)=O`, the GI50 in [1] was 25.9 µM; in test [10], 43500 nM; in test [3] it was 41 µM; in test [4] it was 24.9 µM; in test [5], 46.2 µM; in test [7], 23.9 µM. Also, the GI50 in test [8] is 21.3 µM; in test [9] it was 8.16 µM. The TGI in test [1], in test [10], in [3], in test [4], in [5] and in test [7] was greater than 100 µM in each case. Further, the TGI in test [8] amounted to 44 µM; in test [9], 66.4 µM.

With `Cc1nc2ccc(Nc3nc(Cl)nc(N4CCOCC4)n3)cc2n1Cc1ccccc1`, the GI50 is 2.94 µM in test [1]; 1.85 µM in test [2]; 2050 nM in test [10]; 6.79 µM in [4]; 2.83 µM in test [5]; 2.95 µM in [6]. Also, the GI50 in test [8] is 18.4 µM; in [9], 4.19 µM. In addition, the TGI is 14.1 µM in test [1]; 3.58 µM in [2]; 3.85 µM in test [10]; 88 µM in [4]; greater than 100 µM in test [5]; greater than 100 µM in [6]. Moreover, the results for the TGI in test [8] and in test [9] were greater than 100 µM and 36 µM, respectively.

For the compound `c1cc(NNc2cccc(-c3nn[nH]n3)c2)cc(-c2nn[nH]n2)c1`, the TGI in [1], in test [2], in [3], in [4], in test [6] and in test [7] was greater than 100 µM throughout. The TGI in test [8] and in test [9] was greater than 100 µM each time.

On to `Cc1cc(S(=O)(=O)Nc2nc3ccccc3o2)c(SCc2ccccc2)cc1Cl`, for which the GI50 in test [1] was 21.5 µM; in [2] it was 29.5 µM; in test [3], 33.8 µM; in test [4] it was 32.1 µM; in test [5], 11.5 µM; in test [6], 21 µM. The GI50 in [7] was 17.5 µM; in [8], 22.4 µM; in [9], 16.7 µM. The TGI in test [1] is 52.8 µM; in [2], 61.5 µM; in test [3], greater than 100 µM; in [4] it was 90.1 µM; in test [5] it was greater than 100 µM; in [6] it was 50.2 µM. For the same compound, the results for the TGI in test [7], in [8] and in test [9] were 38 µM, 78.3 µM and 42.1 µM, respectively.

Take `CCSCC1CC(O)(c2ccccc2)CC(c2ccc(F)cc2)O1` (stereo not drawn): the GI50 in [1] was 2.11 µM; in test [2], 1.68 µM; in test [10], 2560 nM; in test [3], 1.73 µM; in test [4] it was 1.74 µM; in test [6], 2.95 µM. For the same compound, the values for the GI50 in test [7], in test [8] and in [9] were 1.76 µM, 2.79 µM and 1.83 µM, respectively. Also, the TGI in test [1] was found to be 5.49 µM; in [2], 3.47 µM; in [10], 7.11 µM; in test [3] it was 3.46 µM; in test [4], 3.17 µM; in test [6], 8.79 µM. Moreover, the TGI in [7] came to 3.32 µM; in [8], 8.98 µM; in test [9], 3.4 µM.
